Measurements as given in patent publication US20170190671A1, “BIS(ARYL)CATECHOL DERIVATIVES AS HERBICIDES” (E I DU PONT DE NEMOURS AND COMPANY, priority 2014, published 2017).

Legend:
Assay type in all cases: in vivo
[1] = test system: giant foxtail (Setaria faberii); assay: Test C preemergence; conditions: Setaria faberi, pre-emergence, 336 h, scale 0 to 100, read-out: Plant response rating, Foxtail, Giant
In short: (§1)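 Steps: plant seeds in loam-sand soil and treat preemergence, or grow plants in peat-based medium to 2-18 cm and spray; compound formulated in non-phytotoxic solvent/surfactant; hold in greenhouse 13-15 days; score visually versus controls from 0 (no effect) to 100 (complete control).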

[2] = test system: large (Lg) crabgrass (Digitaria sanguinalis); assay: Test C preemergence; conditions: Digitaria sanguinalis, pre-emergence, 336 h, scale 0 to 100, read-out: Plant response rating, Crabgrass, Large
In short: as §1

[3] = test system: oilseed rape (Brassica napus); assay: Test C preemergence; conditions: Brassica napus, pre-emergence, scale 0 to 100, read-out: Plant response rating, Oilseed Rape
In short: as §1

[4] = test system: winter wheat (Triticum aestivum); assay: Test C preemergence; conditions: Triticum aestivum, pre-emergence, 336 h, scale 0 to 100, read-out: Plant response rating, Wheat
In short: as §1

[5] = test system: Italian ryegrass (Lolium multiflorum); assay: Test C postemergence; conditions: Lolium multiflorum, post-emergence, 336 h, Postemergence, scale 0 to 100, read-out: Plant response rating, Ryegrass, Italian
[6] = test system: barnyardgrass (Echinochloa crus-galli); assay: Test C postemergence; conditions: Echinochloa crus-galli, post-emergence, Postemergence, scale 0 to 100, read-out: Plant response rating, Barnyardgrass
[7] = test system: blackgrass (Alopecurus myosuroides); assay: Test C postemergence; conditions: Alopecurus myosuroides, post-emergence, 336 h, Postemergence, scale 0 to 100, read-out: Plant response rating, Blackgrass
[8] = test system: chickweed (common chickweed, Stellaria media); assay: Test C postemergence; conditions: Stellaria media, post-emergence, Postemergence, scale 0 to 100, read-out: Plant response rating, Chickweed
corn (Zea mays) = assay: Test C postemergence; conditions: Zea mays, post-emergence, 336 h, Postemergence, scale 0 to 100
[9] = test system: galium (catchweed bedstraw, Galium aparine); assay: Test C postemergence; conditions: Galium, post-emergence, 336 h, Postemergence, scale 0 to 100, read-out: Plant response rating, Galium
[10] = test system: giant foxtail (Setaria faberii); assay: Test C postemergence; conditions: Setaria faberi, post-emergence, 336 h, Postemergence, scale 0 to 100, read-out: Plant response rating, Foxtail, Giant
[11] = test system: johnsongrass (Sorghum halepense); assay: Test C postemergence; conditions: Sorghum halepense, post-emergence, 336 h, Postemergence, scale 0 to 100, read-out: Plant response rating, Johnsongrass
[12] = test system: lambsquarters (Chenopodium album); assay: Test C postemergence; conditions: Chenopodium album, post-emergence, 336 h, Postemergence, scale 0 to 100, read-out: Plant response rating, Lambsquarters
[13] = test system: large (Lg) crabgrass (Digitaria sanguinalis); assay: Test C postemergence; conditions: Digitaria sanguinalis, post-emergence, 336 h, Postemergence, scale 0 to 100, read-out: Plant response rating, Crabgrass, Large
[14] = test system: morningglory (Ipomoea coccinea); assay: Test C postemergence; conditions: Ipomoea, post-emergence, 336 h, Postemergence, scale 0 to 100, read-out: Plant response rating, Morningglory
[15] = test system: oilseed rape (Brassica napus); assay: Test C postemergence; conditions: Brassica napus, post-emergence, Postemergence, scale 0 to 100, read-out: Plant response rating, Oilseed Rape
[16] = test system: pigweed (Amaranthus retroflexus); assay: Test C postemergence; conditions: Amaranthus retroflexus, post-emergence, 336 h, Postemergence, scale 0 to 100, read-out: Plant response rating, Pigweed
[17] = test system: ragweed (common ragweed, Ambrosia elatior); assay: Test C postemergence; conditions: Ambrosia artemisiifolia, post-emergence, 336 h, Postemergence, scale 0 to 100, read-out: Plant response rating, Ragweed
soybean (Glycine max) = assay: Test C postemergence; conditions: Glycine max, post-emergence, Postemergence, scale 0 to 100, read-out: Plant response rating, Soybean
[18] = test system: velvetleaf (Abutilon theophrasti); assay: Test C postemergence; conditions: Abutilon theophrasti, post-emergence, Postemergence, scale 0 to 100, read-out: Plant response rating, Velvetleaf
[19] = test system: winter wheat (Triticum aestivum); assay: Test C postemergence; conditions: Triticum aestivum, post-emergence, 336 h, Postemergence, scale 0 to 100, read-out: Plant response rating, Wheat
[20] = test system: yellow nutsedge (Cyperus esculentus); assay: Test C postemergence; conditions: Cyperus, post-emergence, 336 h, Postemergence, scale 0 to 100, read-out: Plant response rating, Nutsedge, Yellow

Fc1cccc(Oc2ncc(Cl)cn2)c1Oc1ncc(Cl)cn1 [Compound 21, 2,2′-[[3-fluoro-1,2-phenylene]bis(oxy)]bis[5-chloropyrimidine]]
15%: pest or weed control at 16 g/ha ([12]; 16 g ai/ha) | pest or weed control at 125 g/ha ([13]; 125 g ai/ha)
95%: pest or weed control at 125 g/ha ([16]; 125 g ai/ha) | pest or weed control at 125 g/ha ([17]; 125 g ai/ha) | plant injury at 62 g/ha (soybean (Glycine max); 62 g ai/ha) | plant injury at 125 g/ha (soybean (Glycine max); 125 g ai/ha)
20%: pest or weed control at 62 g/ha ([7]; 62 g ai/ha) | pest or weed control at 62 g/ha ([10]; 62 g ai/ha) | pest or weed control at 125 g/ha ([10]; 125 g ai/ha)
40%: plant injury at 31 g/ha ([4]; 31 g ai/ha, preemergence)
0%: plant injury at 16 g/ha ([4]; Preemergence, 16 g ai/ha) | pest or weed control at 31 g/ha ([5]; 31 g ai/ha) | pest or weed control at 62 g/ha ([5]; 62 g ai/ha) | Corn plant response rating (crop injury, 0 = no effect, 100 = complete kill) at 16 g/ha (corn (Zea mays); 16 g ai/ha) | plant injury at 31 g/ha ([19]; 31 g ai/ha) | plant injury at 62 g/ha ([19]; 62 g ai/ha)
55%: plant injury at 31 g/ha ([15]; 31 g ai/ha)
98%: pest or weed control at 16 g/ha ([2]; Preemergence, 16 g ai/ha) | plant injury at 16 g/ha ([3]; Preemergence, 16 g ai/ha) | pest or weed control at 62 g/ha ([12]; 62 g ai/ha) | pest or weed control at 125 g/ha ([14]; 125 g ai/ha)
90%: pest or weed control at 16 g/ha ([1]; Preemergence, 16 g ai/ha) | plant injury at 125 g/ha ([4]; 125 g ai/ha, preemergence) | pest or weed control at 125 g/ha ([9]; 125 g ai/ha) | pest or weed control at 125 g/ha ([12]; 125 g ai/ha)
70%: pest or weed control at 125 g/ha ([7]; 125 g ai/ha) | pest or weed control at 16 g/ha ([9]; 16 g ai/ha) | pest or weed control at 31 g/ha ([12]; 31 g ai/ha) | pest or weed control at 62 g/ha ([14]; 62 g ai/ha) | pest or weed control at 125 g/ha ([18]; 125 g ai/ha)
75%: pest or weed control at 31 g/ha ([16]; 31 g ai/ha)
80%: pest or weed control at 31 g/ha ([9]; 31 g ai/ha) | plant injury at 125 g/ha ([15]; 125 g ai/ha)
25%: pest or weed control at 125 g/ha ([5]; 125 g ai/ha)
30%: pest or weed control at 31 g/ha ([17]; 31 g ai/ha)
5%: pest or weed control at 16 g/ha ([6]; 16 g ai/ha) | pest or weed control at 31 g/ha ([6]; 31 g ai/ha) | pest or weed control at 62 g/ha ([6]; 62 g ai/ha) | pest or weed control at 125 g/ha ([6]; 125 g ai/ha) | pest or weed control at 16 g/ha ([7]; 16 g ai/ha) | pest or weed control at 31 g/ha ([7]; 31 g ai/ha) | Corn plant response rating (crop injury, 0 = no effect, 100 = complete kill) at 31 g/ha (corn (Zea mays); 31 g ai/ha) | Corn plant response rating (crop injury, 0 = no effect, 100 = complete kill) at 62 g/ha (corn (Zea mays); 62 g ai/ha) | Corn plant response rating (crop injury, 0 = no effect, 100 = complete kill) at 125 g/ha (corn (Zea mays); 125 g ai/ha) | pest or weed control at 16 g/ha ([10]; 16 g ai/ha) | pest or weed control at 31 g/ha ([10]; 31 g ai/ha) | pest or weed control at 16 g/ha ([11]; 16 g ai/ha) | pest or weed control at 31 g/ha ([11]; 31 g ai/ha) | pest or weed control at 62 g/ha ([11]; 62 g ai/ha) | pest or weed control at 125 g/ha ([11]; 125 g ai/ha) | pest or weed control at 16 g/ha ([13]; 16 g ai/ha) | pest or weed control at 31 g/ha ([13]; 31 g ai/ha) | pest or weed control at 62 g/ha ([13]; 62 g ai/ha) | plant injury at 125 g/ha ([19]; 125 g ai/ha) | pest or weed control at 31 g/ha ([20]; 31 g ai/ha) | pest or weed control at 62 g/ha ([20]; 62 g ai/ha) | pest or weed control at 125 g/ha ([20]; 125 g ai/ha)
65%: pest or weed control at 31 g/ha ([14]; 31 g ai/ha) | plant injury at 31 g/ha (soybean (Glycine max); 31 g ai/ha) | pest or weed control at 62 g/ha ([18]; 62 g ai/ha)
100%: pest or weed control at 31 g/ha ([1]; 31 g ai/ha, preemergence) | pest or weed control at 62 g/ha ([1]; 62 g ai/ha, preemergence) | pest or weed control at 125 g/ha ([1]; 125 g ai/ha, preemergence) | pest or weed control at 31 g/ha ([2]; 31 g ai/ha, preemergence) | pest or weed control at 62 g/ha ([2]; 62 g ai/ha, preemergence) | pest or weed control at 125 g/ha ([2]; 125 g ai/ha, preemergence) | plant injury at 31 g/ha ([3]; 31 g ai/ha, preemergence) | plant injury at 62 g/ha ([3]; 62 g ai/ha, preemergence) | plant injury at 125 g/ha ([3]; 125 g ai/ha, preemergence) | pest or weed control at 125 g/ha ([8]; 125 g ai/ha)
60%: pest or weed control at 62 g/ha ([8]; 62 g ai/ha) | plant injury at 62 g/ha ([15]; 62 g ai/ha) | pest or weed control at 62 g/ha ([17]; 62 g ai/ha)
50%: plant injury at 62 g/ha ([4]; 62 g ai/ha, preemergence) | pest or weed control at 16 g/ha ([8]; 16 g ai/ha) | pest or weed control at 31 g/ha ([8]; 31 g ai/ha) | pest or weed control at 31 g/ha ([18]; 31 g ai/ha)
85%: pest or weed control at 62 g/ha ([9]; 62 g ai/ha) | pest or weed control at 62 g/ha ([16]; 62 g ai/ha)
